Results taken from patent US11752155B2, “Treatment of autism spectrum disorders, obsessive-compulsive disorder and anxiety disorders” (Rugen Holdings (Cayman) Limited, priority 2016, dated 2023).
Where two headings read alike, the source gives them in different places.

Columns and labels:
[1] = tested on: Shank3 complete knockout mice; experiment: Grooming Test in Shank3 complete knockout mice; format: in vivo, mouse; settings: for acute effect on grooming: single IP dose, 20 min postdose, Day 1
Protocol: Animals. The breeding conditions and genotyping methods for Sapap3 and Shank3 complete knockout mice were the same as described in Welch et al. (Nature 2007, 448(7156):894-900) and in Wang et al. (Nat. Commun. 2016, 7:11459), respectively. Homozygous knockout mice and littermate wild type mice of both genders were used at 4 to 8 weeks of age.
Compound formulation. The test compounds were dissolved in a small volume of dimethyl sulfoxide (DMSO) and diluted in an aqueous solution of 2-hydroxypropyl-beta-cyclodextrin (HP-β-CD) and administered IP. Dosing volume was 10 mL/kg. At 20 minutes after dosing, the mice were subjected to the behavioral test as described below.
Testing room and apparatus. The test room was maintained under the same conditions as the colony rooms, except the mice were housed in conventional shoe-box cages with food, water, and nesting materials. Animals were housed in the test room 48-72 hours prior to testing, in order to permit the mice to fully acclimate to the test room and conventional housing cages before testing. Tests were conducted in white polyvinyl-fluoride hard-sided foam test arenas (20×20×12 cm). The arenas were indirectly illuminated by dimmable LED light bars placed level with the arena floor and 30 cm away from the external wall of the test arena. This permitted the internal area of the arena to be evenly illuminated at approximately 40 lux. The illumination levels where the mice were housed before testing were about 80-100 lux.
Testing procedure. Mice were carefully placed into the test arenas 20 minutes after compound administration. Animals were given free exploration of the arena for 10 minutes, after which they were gently sprayed with 4 quick pumps of a water mist (total water volume approximated 1.5-1.7 mL). Mice were then allowed an additional 10 minutes to self-groom and engage in other behaviors before being removed from the arena. All tests were videotaped using cameras mounted above the testing arena and were saved to digital media format using Noldus Media Player software (Noldus Information Technologies, Leesburg, Va.). The mice were only tested once in the acute studies and were repeatedly tested in the sustained effect studies.
Quantitation of grooming bouts. Analyses of the video recordings were conducted with TopScan behavioral recognition software (Cleversys Inc, Reston, Va.). Configurations were made which scored time spent in grooming. […] These settings permitted automated scoring of grooming by TopScan that corresponded well to manual-scoring of these behaviors by a trained blinded observer using Noldus Observer XT9 (Noldus Information Technologies), with an average corrected kappa of 0.925 (range 0.807-0.983).
Statistical analyses. Data are presented as means and standard error of the means (SEMs). Analyses were conducted using SPSS 23 (IBM SPSS Statistics, Chicago, Ill.). Time spent in grooming behavior (seconds) over the 10-minute pre- and post-spray time blocks were analyzed with repeated measures analyses of variance (RMANOVA). The pre- and post-spray times were used for the within subject effects and the genotype and compound treatment condition were used as the between subject effects. In sustained effect studies, days were also used for a within subject effect. […]
The amount of time mice spent grooming in a novel environment was quantified in Shank3 complete knockout mice (Wang et al. Nat. Commun. 2016, 7:11459) and their wild type littermates for 10 minutes. […]

human NR1/NR2A = human NR1/NR2A (Homo sapiens (Human), UniProt Q05586+Q12879); experiment: NR2A antagonist activity: calcium influx (Fluo-4) assay in HEK293 cells; format: cell-based; settings: Table 1.1B; read-out: NR2A IC50
Protocol: Activation of the NR2A or NR2B subtype of NMDA receptor with glutamate as an agonist and glycine co-agonist on these cells results in calcium influx, which can be monitored with fluorescent indicator Fluo-4.
For experiments, the cells were seeded onto poly-D-lysine-coated 96-well black plates with clear bottom (Corning) at a density of ˜50,000 cells/well. After overnight culture, the growth medium was removed from the wells and the cells were incubated at 37° C. for 60 minutes in Hanks buffer containing 4 μM fluo-4-AM (Invitrogen) and 0.1% bovine serum albumin (BSA). After dye-loading, the cells were washed three times with Hanks buffer and incubated for 10 minutes at room temperature with various concentrations of test compounds prepared in Hanks buffer with 0.1% BSA. The cell plates were placed onto an FDSS Cell fluorescence reader (Hamamatsu). After 20 seconds of reading background fluorescence, agonist glutamate at final 100 µM and co-agonist glycine at final 50 μM were added to the cells to activate the receptor, and the resulting fluorescence changes were recorded and quantified. Based on the changes in fluorescence intensity, the pharmacological effect of test compounds was analyzed and the IC50 values derived from a non-linear least squares fitting of the concentration-dependent response to a standard logistic equation using Prism (Graphpad Software, Inc.): Amplitude=Max Amplitude/(1+(IC50/[antagonist])^n).

[2] = biological target: native rat brain NR2B receptors (Rattus norvegicus (Rat), UniProt P35439+Q00960); experiment: NR2B radioligand binding assay in rat brain using [3H] (E)-N1-(2-methoxybenzyl)-cinnamidine; settings: rat brain NR2B receptors; mean of replicates; read-out: Arithmetic Mean Ki
human NR1/NR2B = human NR1/NR2B (Homo sapiens (Human), UniProt Q05586+Q13224); experiment: NR2B antagonist activity: calcium influx (Fluo-4) assay in HEK293 cells; format: cell-based; settings: read-out: NR2B IC50
Summary of the method: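 HEK293 cells expressing NR1/NR2A or NR1/NR2B, loaded with fluo-4-AM, preincubated 10 min at room temperature with compound in Hanks buffer/0.1% BSA.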

[3] = single dose 3 mg/kg IP on Day 1

Chain of human NR1/NR2B (Q13224 27-1484, other chains not shown): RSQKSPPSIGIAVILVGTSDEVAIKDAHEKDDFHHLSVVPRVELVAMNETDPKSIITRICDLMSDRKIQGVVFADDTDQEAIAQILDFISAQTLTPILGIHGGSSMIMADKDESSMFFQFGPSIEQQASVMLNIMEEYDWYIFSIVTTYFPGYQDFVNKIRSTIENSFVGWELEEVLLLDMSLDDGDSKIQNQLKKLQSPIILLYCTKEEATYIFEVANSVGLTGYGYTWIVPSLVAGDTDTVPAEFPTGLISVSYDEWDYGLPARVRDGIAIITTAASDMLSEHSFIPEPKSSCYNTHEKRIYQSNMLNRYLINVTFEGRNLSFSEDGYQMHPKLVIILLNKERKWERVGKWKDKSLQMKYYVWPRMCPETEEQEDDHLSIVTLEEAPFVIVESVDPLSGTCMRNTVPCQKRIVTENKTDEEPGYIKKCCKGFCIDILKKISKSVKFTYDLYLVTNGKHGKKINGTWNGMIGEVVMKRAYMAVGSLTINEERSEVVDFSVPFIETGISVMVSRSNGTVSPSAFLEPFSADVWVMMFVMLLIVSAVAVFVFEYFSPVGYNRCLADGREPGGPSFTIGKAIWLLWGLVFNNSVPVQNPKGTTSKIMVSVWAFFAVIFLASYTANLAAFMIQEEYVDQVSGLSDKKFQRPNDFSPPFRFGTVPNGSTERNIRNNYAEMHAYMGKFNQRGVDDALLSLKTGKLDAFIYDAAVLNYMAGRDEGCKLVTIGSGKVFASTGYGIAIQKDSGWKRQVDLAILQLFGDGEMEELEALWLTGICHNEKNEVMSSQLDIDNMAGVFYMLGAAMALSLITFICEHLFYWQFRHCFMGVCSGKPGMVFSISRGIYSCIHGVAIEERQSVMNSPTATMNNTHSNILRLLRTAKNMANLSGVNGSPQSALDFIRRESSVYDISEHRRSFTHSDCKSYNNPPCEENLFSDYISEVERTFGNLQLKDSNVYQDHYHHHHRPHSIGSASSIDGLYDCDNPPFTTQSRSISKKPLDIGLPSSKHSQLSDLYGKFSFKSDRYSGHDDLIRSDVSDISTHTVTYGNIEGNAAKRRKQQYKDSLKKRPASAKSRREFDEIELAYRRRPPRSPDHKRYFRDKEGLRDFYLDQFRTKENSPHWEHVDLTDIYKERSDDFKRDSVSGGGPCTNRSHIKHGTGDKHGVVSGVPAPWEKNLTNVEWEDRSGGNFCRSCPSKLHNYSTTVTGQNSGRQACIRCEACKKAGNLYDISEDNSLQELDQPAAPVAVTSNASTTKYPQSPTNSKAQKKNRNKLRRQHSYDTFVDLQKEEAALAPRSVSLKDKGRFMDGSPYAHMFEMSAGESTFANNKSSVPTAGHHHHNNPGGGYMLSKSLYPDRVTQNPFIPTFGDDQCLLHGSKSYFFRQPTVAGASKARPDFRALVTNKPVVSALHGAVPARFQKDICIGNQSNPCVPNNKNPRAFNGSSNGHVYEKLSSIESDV
Chain of native rat brain NR2B receptors (Q00960 27-1482, other chains not shown): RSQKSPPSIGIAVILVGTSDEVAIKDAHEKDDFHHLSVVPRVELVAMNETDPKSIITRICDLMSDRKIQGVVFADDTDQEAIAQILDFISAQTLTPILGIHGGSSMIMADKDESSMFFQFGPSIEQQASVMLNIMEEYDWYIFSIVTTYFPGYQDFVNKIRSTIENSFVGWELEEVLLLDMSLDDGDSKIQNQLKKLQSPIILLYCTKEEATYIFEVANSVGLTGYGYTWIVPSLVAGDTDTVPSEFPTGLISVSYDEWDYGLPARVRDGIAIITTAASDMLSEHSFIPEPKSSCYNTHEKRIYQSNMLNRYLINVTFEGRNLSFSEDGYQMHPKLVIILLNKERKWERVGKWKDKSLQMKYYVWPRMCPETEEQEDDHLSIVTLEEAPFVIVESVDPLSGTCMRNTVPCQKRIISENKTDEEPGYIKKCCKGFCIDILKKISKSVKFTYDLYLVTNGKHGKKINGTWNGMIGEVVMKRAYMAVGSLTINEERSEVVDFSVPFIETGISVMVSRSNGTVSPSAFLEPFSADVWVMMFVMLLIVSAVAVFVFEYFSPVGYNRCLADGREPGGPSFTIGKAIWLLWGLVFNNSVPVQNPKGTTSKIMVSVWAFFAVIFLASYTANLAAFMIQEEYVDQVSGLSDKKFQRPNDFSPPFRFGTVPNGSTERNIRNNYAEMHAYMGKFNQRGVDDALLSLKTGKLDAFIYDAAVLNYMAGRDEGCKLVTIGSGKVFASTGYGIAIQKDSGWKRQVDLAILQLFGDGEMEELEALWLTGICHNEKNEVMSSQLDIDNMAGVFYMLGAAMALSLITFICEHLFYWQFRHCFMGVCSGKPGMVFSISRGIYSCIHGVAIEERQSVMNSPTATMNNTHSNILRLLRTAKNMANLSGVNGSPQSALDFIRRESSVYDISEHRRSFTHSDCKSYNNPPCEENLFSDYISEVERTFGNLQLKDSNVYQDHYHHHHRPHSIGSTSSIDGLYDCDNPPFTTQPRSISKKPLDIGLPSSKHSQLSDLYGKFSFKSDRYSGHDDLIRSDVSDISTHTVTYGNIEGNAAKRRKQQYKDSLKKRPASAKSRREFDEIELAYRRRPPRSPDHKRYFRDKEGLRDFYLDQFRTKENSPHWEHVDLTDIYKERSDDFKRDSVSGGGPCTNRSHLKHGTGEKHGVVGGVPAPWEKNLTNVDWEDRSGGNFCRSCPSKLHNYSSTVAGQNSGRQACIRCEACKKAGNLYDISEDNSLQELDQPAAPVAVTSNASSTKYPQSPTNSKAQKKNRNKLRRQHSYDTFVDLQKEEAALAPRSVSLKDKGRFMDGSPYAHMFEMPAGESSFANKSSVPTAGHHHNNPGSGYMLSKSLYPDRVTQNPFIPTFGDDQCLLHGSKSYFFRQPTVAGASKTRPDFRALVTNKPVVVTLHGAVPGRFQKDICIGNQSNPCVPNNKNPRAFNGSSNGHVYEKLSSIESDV
Chain of human NR1/NR2A (Q12879 23-1464, other chains not shown): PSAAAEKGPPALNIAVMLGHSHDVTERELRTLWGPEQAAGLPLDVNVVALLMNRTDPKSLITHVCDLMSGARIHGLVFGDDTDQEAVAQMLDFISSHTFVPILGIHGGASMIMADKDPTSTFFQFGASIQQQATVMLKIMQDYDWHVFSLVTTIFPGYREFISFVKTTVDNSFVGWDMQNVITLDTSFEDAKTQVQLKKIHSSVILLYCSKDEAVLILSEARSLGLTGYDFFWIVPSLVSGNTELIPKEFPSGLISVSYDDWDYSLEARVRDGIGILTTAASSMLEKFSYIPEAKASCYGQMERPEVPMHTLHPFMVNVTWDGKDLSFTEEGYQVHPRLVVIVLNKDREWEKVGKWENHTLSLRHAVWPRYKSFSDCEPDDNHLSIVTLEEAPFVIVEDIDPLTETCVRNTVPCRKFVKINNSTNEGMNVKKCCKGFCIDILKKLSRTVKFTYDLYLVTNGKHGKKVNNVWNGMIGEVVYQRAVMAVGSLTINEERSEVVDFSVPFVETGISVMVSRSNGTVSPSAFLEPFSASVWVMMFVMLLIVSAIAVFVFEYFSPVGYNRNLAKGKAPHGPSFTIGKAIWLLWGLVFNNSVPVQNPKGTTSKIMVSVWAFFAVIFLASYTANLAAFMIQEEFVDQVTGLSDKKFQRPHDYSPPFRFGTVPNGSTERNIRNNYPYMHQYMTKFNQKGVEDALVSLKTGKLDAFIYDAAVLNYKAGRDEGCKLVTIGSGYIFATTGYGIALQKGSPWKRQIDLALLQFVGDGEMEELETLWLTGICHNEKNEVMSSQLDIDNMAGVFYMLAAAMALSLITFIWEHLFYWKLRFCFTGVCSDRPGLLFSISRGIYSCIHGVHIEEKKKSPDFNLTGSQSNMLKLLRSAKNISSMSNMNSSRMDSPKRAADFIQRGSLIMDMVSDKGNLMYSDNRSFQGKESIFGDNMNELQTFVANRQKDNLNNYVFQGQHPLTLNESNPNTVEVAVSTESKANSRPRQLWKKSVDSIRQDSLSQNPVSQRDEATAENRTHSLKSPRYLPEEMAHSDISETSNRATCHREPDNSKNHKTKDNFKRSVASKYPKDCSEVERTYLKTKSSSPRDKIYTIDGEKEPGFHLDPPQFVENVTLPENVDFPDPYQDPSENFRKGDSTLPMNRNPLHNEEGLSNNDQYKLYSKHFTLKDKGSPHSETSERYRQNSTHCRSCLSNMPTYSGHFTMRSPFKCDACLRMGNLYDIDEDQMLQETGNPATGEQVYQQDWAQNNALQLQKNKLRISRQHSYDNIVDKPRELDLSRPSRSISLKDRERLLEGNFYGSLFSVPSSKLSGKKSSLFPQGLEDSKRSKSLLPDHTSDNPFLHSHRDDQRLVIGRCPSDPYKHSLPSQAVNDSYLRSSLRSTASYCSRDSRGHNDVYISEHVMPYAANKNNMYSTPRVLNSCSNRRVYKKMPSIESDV

IC50 (human NR1/NR2A) [nM]	Ki [2] [nM]	IC50 (human NR1/NR2B; Table 1.1B) [nM]	IC50 (human NR1/NR2B; Table 1.3B) [nM]	IC50 (human NR1/NR2B; Table 1.4B) [nM]	SMILES	acute effect on grooming [1]	significantly reduced grooming through Day ([1]; single dose 1 mg/kg IP on Day 1) [days]	significantly reduced grooming through Day [1, 3] [days]
–	–	–	–	–	FC(F)c1ccc(C(F)(F)CN2CCC(Nc3ncnc4[nH]ccc34)CC2)cc1 [C-179^A′]	significantly reduced grooming	33	33
> 10000	4.81	20.7	20.7	20.7	Cc1ccc(COC(=O)N2CC[C@H](CNc3nccn4cnnc34)C(F)(F)C2)cc1 [E1-1.2^B′]	–	–	–
–	–	29	29	29	Cc1ccc(COC(=O)N2CC[C@H](CNc3cnc(C)cn3)C(F)(F)C2)cc1 [E1-21.26^B′]	–	–	–
–	–	–	–	–	Cc1ccc(COC(=O)N2CC[C@H](CNc3ncccn3)C(F)(F)C2)cc1 [E1-22.2^B′]	significantly reduced grooming	–	33
